Data published in patent US11098010B2 (priority 2017, dated 2021).
Where two headings read alike, the source gives them in different places.

Test system: HBV rcDNA in HepDE19 cells
Test: HepDE19 assay with bDNA quantitation of HBV rcDNA
Format: cell-based, hepatitis B virus (HBV)
[1] = Hepatitis B virus, HepDE19, 168 h, read-out: DE-19 bDNA EC50 (μM), HepDE19 cells, inhibition of rcDNA formation, 7 day incubation, top concentration 25 μM
[2] = read-out: DE-19 bDNA EC50, HepDE19 cells, inhibition of rcDNA formation, 7 day incubation, top concentration 25 μM
[3] = Hepatitis B virus, HepDE19, 168 h, HepDE19 cells, inhibition of rcDNA formation, 7 day incubation, top concentration 25 μM, read-out: DE-19 bDNA EC50
[4] = HepDE19 cells, inhibition of rcDNA formation, 7 day incubation, top concentration 25 μM, read-out: DE-19 bDNA EC50

`O=C(N[C@H]1CCc2c(C(=O)Nc3ccc(F)c(Cl)c3)ccc(F)c21)OCC1CCN(C(=O)CO)CC1` [Compound 175, O-(1-(2-Hydroxyacetyl)piperidin-4-yl)methyl, N—(S)-(4-((3-chloro-4-fluorophenyl)carbamoyl)-7-fluoro-2,3-dihydro-1H-inden-1-yl) carbamate] gave an EC50 [1] of 0.96 µM.

For `COC(=O)NC1COc2c(C(=O)Nc3ccc(F)c(Cl)c3)ccc(F)c21` (centres unmarked) [Compound 188, O-Methyl, N-(7-((3-chloro-4-fluorophenyl)carbamoyl)-4-fluoro-2,3-dihydrobenzofuran-3-yl) carbamate], the EC50 [2] was 5.3 µM.

For `CC(C)(C)[S@@+]([O-])N[C@H]1CCc2c(C(=O)Nc3ccc(F)c(Cl)c3)ccc(F)c21` [Compound 281, (S)-1-(((R)-tert-Butylsulfinyl)amino)-N-(3-chloro-4-fluorophenyl)-7-fluoro-2,3-dihydro-1H-indene-4-carboxamide], the EC50 [3] was 4.4 µM.

`O=C(N[C@H]1CCc2c(C(=O)Nc3ccc(F)c(Cl)c3)ccc(F)c21)OCC(F)F` [Compound 84, O-2,2-Difluoroethyl, N—(S)-(4-((3-chloro-4-fluorophenyl)carbamoyl)-7-fluoro-2,3-dihydro-1H-inden-1-yl) carbamate] was tested, and the EC50 [3] was 0.17 µM.

In the case of `CC1(NC(=O)OCc2ccccn2)CCc2c(C(=O)Nc3ccc(F)c(Cl)c3)ccc(F)c21` (centres unmarked) [Compound 219, O-pyridin-2-ylmethyl, N-(4-((3-chloro-4-fluorophenyl)carbamoyl)-7-fluoro-1-methyl-2,3-dihydro-1H-inden-1-yl) carbamate], the EC50 [4] is reported as 1.5 µM.

`Cc1ccnc(N[C@H]2CCc3c(C(=O)Nc4ccc(F)c(Cl)c4)ccc(F)c32)n1` [Compound 160] gave an EC50 [1] of 0.25 µM.

`O=C(Nc1ccc(F)c(Cl)c1)c1ccc(F)c2c1CC[C@@H]2Nc1ncc(O)cn1` [Compound 186, (S)-N-(3-chloro-4-fluorophenyl)-7-fluoro-1-((5-hydroxypyrimidin-2-yl)amino)-2,3-dihydro-1H-indene-4-carboxamide] gave an EC50 [3] of 1.6 µM.

Compound `COC(=O)NC1CSc2c(C(=O)Nc3ccc(F)c(F)c3)ccc(F)c21` (centres unmarked) [Compound 55, O-Methyl, N-(7-((3,4-difluorophenyl)carbamoyl)-4-fluoro-2,3-dihydrobenzo[b]thiophen-3-yl) carbamate] has an EC50 [2] of 1.2 µM.

`COC(=O)NC1COc2c(C(=O)Nc3ccc(F)c(Cl)c3)ccc(F)c21` (centres unmarked) [Compound 187, O-Methyl, N-(7-((3-chloro-4-fluorophenyl)carbamoyl)-4-fluoro-2,3-dihydrobenzofuran-3-yl) carbamate] showed an EC50 [2] of 23 µM.

Work on `COC(=O)NC1CSc2c(C(=O)Nc3ccc(F)c(F)c3)cccc21` (single isomer, unassigned) [Compound 31, O-Methyl, N-(7-((3,4-difluorophenyl)carbamoyl)-2,3-dihydrobenzo[b]thiophen-3-yl)carbamate] yielded an EC50 [2] of over 25 µM.

`O=C(N[C@H]1CCc2c(C(=O)Nc3ccc(F)c(Cl)c3)ccc(F)c21)OCc1cccc[n+]1[O-]` [Compound 67, (S)-2-((((4-((3-Chloro-4-fluorophenyl)carbamoyl)-7-fluoro-2,3-dihydro-1H-inden-1-yl)carbamoyl)oxy)methyl)pyridine 1-oxide] showed an EC50 [3] of 0.31 µM.

Work on `CNC(=O)N[C@@H]1c2cccc(C(=O)Nc3ccc(F)c(Cl)c3)c2C[C@H]1OC` [Compound 165, (1R,2R)—N-(3-Chloro-4-fluorophenyl)-2-methoxy-1-(3-methylureido)-2,3-dihydro-1H-indene-4-carboxamide] yielded an EC50 [1] of 0.33 µM.

Work on `O=C(NC1CSc2c(C(=O)Nc3ccc(F)c(Cl)c3)cccc21)OCc1ccccn1` (centres unmarked) [Compound 36, O-Pyridin-2-ylmethyl, N-(7-((3-chloro-4-fluorophenyl)carbamoyl)-2,3-dihydrobenzo[b]thiophen-3-yl) carbamate] yielded an EC50 [4] of over 25 µM.

For `CNC(=O)N[C@H]1CCc2c(C(=O)Nc3ccc(F)c(F)c3)cccc21` [Compound 2, (S)—N-(3,4-Difluorophenyl)-1-(3-methylureido)-2,3-dihydro-1H-indene-4-carboxamide], the EC50 [3] was 1.4 µM.
